Test results: ChEMBL document CHEMBL3627707, “Incorporation of metabolically stable ketones into a small molecule probe to increase potency and water solubility” (Bioorg Med Chem Lett, 2015)
Converted amounts (≈) assume the structure as drawn. The source made the active and inactive calls. The rule behind the calls is not given here.

Legend:
[1] = test system: DRD; experiment: Growth inhibition of human RAS-G12V overexpressing DRD cells after 48 hrs by alamar blue assay; assay type: functional, cell-based
[2] = Solubility of compound in water; assay type: physicochemical; conditions: buffer
[3] = (§1) Half life in mouse liver microsomes by LC-MS/MS analysis; assay type: ADME; conditions: liver microsomes
[4] = Metabolic stability in mouse liver microsomes assessed as compound remaining after 45 mins by LC-MS/MS analysis; assay type: ADME; conditions: read-out: Stability
[5] = test system: Liver; experiment: as §1; assay type: ADME; conditions: microsomes
[6] = Metabolic stability in mouse liver microsomes assessed as compound remaining after 5 mins by LC-MS/MS analysis; assay type: ADME; conditions: for Stability: microsomes, 5 min; for remaining at 5 min: liver microsomes, read-out: Stability
[7] = Metabolic stability in mouse liver microsomes assessed as compound remaining after 30 mins by LC-MS/MS analysis; assay type: ADME; conditions: read-out: Stability
[8] = Metabolic stability in mouse liver microsomes assessed as compound remaining after 15 mins by LC-MS/MS analysis; assay type: ADME; conditions: read-out: Stability
[9] = Growth inhibition of human HT1080 cells after 48 hrs by alamar blue assay; assay type: functional; conditions: HT-1080, 48 h
[10] = Growth inhibition of human RAS-G12V overexpressing BJeLR cells after 48 hrs by alamar blue assay; assay type: functional, cell-based
[11] = Selectivity ratio of IC50 for human BJeH cells to IC50 for human RAS-G12V overexpressing BJeLR cells; assay type: ADME, cell-based; conditions: BJeH cells and RAS-G12V overexpressing BJeLR cells, read-out: Ratio IC50
[12] = test system: Plasma; experiment: Stability in mouse plasma at 500 ng/ml measured upto 120 mins; assay type: ADME, cell-free; conditions: 2 h
[13] = target: T1, Cystine/glutamate transporter (Homo sapiens, UniProt Q9UPY5); experiment: Inhibition of Xct in human CCF-STTG1 cells assessed as glutamate release after 2 hrs by fluorometry; assay type: cell-based
T1 sequence (Q9UPY5 whole entry): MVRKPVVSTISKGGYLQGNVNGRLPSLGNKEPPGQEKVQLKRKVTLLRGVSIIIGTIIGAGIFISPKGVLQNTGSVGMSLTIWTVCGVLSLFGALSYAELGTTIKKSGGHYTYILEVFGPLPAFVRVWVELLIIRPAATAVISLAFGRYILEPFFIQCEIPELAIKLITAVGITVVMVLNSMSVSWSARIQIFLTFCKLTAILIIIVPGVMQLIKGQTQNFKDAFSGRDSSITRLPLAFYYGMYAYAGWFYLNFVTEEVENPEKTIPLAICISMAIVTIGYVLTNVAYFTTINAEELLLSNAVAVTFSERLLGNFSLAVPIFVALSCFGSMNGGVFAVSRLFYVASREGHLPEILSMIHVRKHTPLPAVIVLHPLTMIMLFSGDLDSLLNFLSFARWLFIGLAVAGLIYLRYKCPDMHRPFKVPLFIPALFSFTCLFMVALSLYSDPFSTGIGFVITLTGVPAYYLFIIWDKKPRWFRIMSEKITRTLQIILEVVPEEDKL

[14] = Growth inhibition of human RAS-G12V overexpressing BJeLR cells; assay type: functional

Structure (SMILES)	inhibition [1]	solubility [2] [µM]	half-life [3] [min]	remaining at 0.75 h [4] [%]	t1/2 [5] [min]	Stability [6] [%]	remaining at 0.5 h [7] [%]	remaining at […] [8] [%]	GI50 [9] [nM]	remaining at 5 min [6] [%]	IC50 [10] [nM]	selectivity ratio [11]	Stability [12]	IC50 [13] [nM]	GI50 [14] [nM]
CCOc1ccccc1-n1c(C(C)N2CCN(C(=O)COc3ccc(Cl)cc3)CC2)nc2ccccc2c1=O (stereo unspecified) [ERASTIN]	Active	90 (≈ 49.2 µg/mL)	< 5	–	–	–	–	–	–	–	–	–	–	–	–
CC(C)Oc1ccc(C(=O)CF)cc1-n1c(CN2CCN(C(=O)COc3ccc(Cl)cc3)CC2)nc2ccccc2c1=O	Active	–	–	0	4.7	15.5	0	0	–	–	–	–	–	–	–
CC(=O)c1ccc(OC(C)C)c(-n2c(CN3CCN(C(=O)COc4ccc(Cl)cc4)CC3)nc3ccccc3c2=O)c1	Active	–	–	0	3.8	0.5	0	0	59	–	–	–	–	–	–
COc1ccc(CN2CCN(CC(=O)c3ccc(OC(C)C)c(-n4c(CN5CCN(C(=O)COc6ccc(Cl)cc6)CC5)nc5ccccc5c4=O)c3)CC2)cc1	Active	–	–	0.2	–	–	0.3	2.8	–	29.7	13	13	–	–	–
CC(C)Oc1ccc(C(=O)C(F)(F)F)cc1-n1c(CN2CCN(C(=O)COc3ccc(Cl)cc3)CC2)nc2ccccc2c1=O	–	–	–	–	–	–	–	–	–	–	210	8	–	–	–
CC(C)Oc1ccc(C(=O)CN2CCNCC2)cc1-n1c(CN2CCN(C(=O)COc3ccc(Cl)cc3)CC2)nc2ccccc2c1=O	–	–	–	76.9	–	–	76.2	94.7	550	87.4	–	–	Stable	–	–
CC(C)Oc1ccc(C(=O)Cn2ccnc2)cc1-n1c(CN2CCN(C(=O)COc3ccc(Cl)cc3)CC2)nc2ccccc2c1=O	Active	–	78.5	64.1	–	–	75.4	82.9	314	89.3	3	42	Stable	–	–
C=CCN1CCN(CC(=O)c2ccc(OC(C)C)c(-n3c(CN4CCN(C(=O)COc5ccc(Cl)cc5)CC4)nc4ccccc4c3=O)c2)CC1	inactive	–	–	0	–	–	0	2.4	–	37.3	195	1.5	–	–	–
CC(C)Oc1ccc(CN2CCNCC2)cc1-n1c(CN2CCN(C(=O)COc3ccc(Cl)cc3)CC2)nc2ccccc2c1=O	–	1400 (≈ 903 µg/mL)	55.3	59.4	–	–	66.6	79.2	1200	–	300	3	–	800	–
CC(C)Oc1ccc(C(=O)CN2CCN(C)CC2)cc1-n1c(CN2CCN(C(=O)COc3ccc(Cl)cc3)CC2)nc2ccccc2c1=O	inactive	–	–	–	–	–	–	–	–	–	474	1.9	–	–	–
CC(C)Oc1ccc(C=O)cc1-n1c(CN2CCN(C(=O)COc3ccc(Cl)cc3)CC2)nc2ccccc2c1=O	–	80 (≈ 46 µg/mL)	–	–	–	–	–	–	–	–	8	15	–	–	8
CC(C)Oc1ccc(C(=O)CN2CCOCC2)cc1-n1c(CN2CCN(C(=O)COc3ccc(Cl)cc3)CC2)nc2ccccc2c1=O	Active	–	–	21.2	–	–	30.6	53.2	–	83.8	427	5	–	–	–
